Assay results taken from the supplement of paper PMC4862054.

Tests used:
Assay in all cases: normalised response (% of control), CellTox Green; higher = less cell death (100 = DMSO, 0 = benzethonium chloride kill control)
Conditions in all cases: incubation time: 72 h
[1] = system: CAL-120
How it was run: (§1)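 Values are normalised signals, each belonging to one concentration of the series. Breast cancer cells (20 µl suspension) were seeded into 384-well plates with compound at 5 concentrations in 10-fold steps over a compound-specific 10,000-fold range and incubated 72 h. Readouts were CellTox Green fluorescence (485/520 nm), then CellTiter-Glo luminescence after 10 min at room temperature, with each plate set to 0.1 % DMSO as 100 and a positive kill control as 0.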

[2] = system: CAL-51
How it was run: as §1

[3] = system: DU-4475
How it was run: as §1

[4] = system: MDA-MB-231
How it was run: as §1

[5] = system: MDA-MB-453
How it was run: as §1

[6] = system: MCF-10A
How it was run: as §1

[7] = system: HCC1937
How it was run: as §1

[8] = system: MDA-MB-436
How it was run: as §1

[9] = system: CAL-85-1
How it was run: as §1

[10] = system: MFM-223
How it was run: as §1

[11] = system: BT-474
How it was run: as §1

[12] = system: BT-549
How it was run: as §1

[13] = system: HDQ-P1
How it was run: as §1

[14] = system: MDA-MB-468
How it was run: as §1

[15] = system: CAL-148
How it was run: as §1

[16] = system: HCC1143
How it was run: as §1

[17] = system: HCC1599
How it was run: as §1

[18] = system: Hs578T
How it was run: as §1

Structure (SMILES)	normalised response [1] [%]	normalised response [2] [%]	normalised response [3] [%]	normalised response [4] [%]	normalised response [5] [%]	normalised response [6] [%]	normalised response [7] [%]	normalised response [8] [%]	normalised response [9] [%]	normalised response [10] [%]	normalised response [11] [%]	normalised response [12] [%]	normalised response [13] [%]	normalised response [14] [%]	normalised response [15] [%]	normalised response [16] [%]	normalised response [17] [%]	normalised response [18] [%]
CC(C)(C)c1cc(NC(=O)Nc2ccc(-c3cn4c(n3)sc3cc(OCCN5CCOCC5)ccc34)cc2)no1 [Quizartinib] (1000 nM)	103	111	102	124	112	93.3	96	71.8	62.5	59.1	101	127	90.1	174	103	132	105	–
CS(=O)(=O)OCCCCOS(C)(=O)=O [Busulfan] (10000 nM)	103	113	102	108	103	104	106	74	103	97.1	101	108	95.2	96.5	106	121	82	94.5
CS(=O)(=O)CCNCc1ccc(-c2ccc3ncnc(Nc4ccc(OCc5cccc(F)c5)c(Cl)c4)c3c2)o1 [Lapatinib] (1000 nM)	99.2	106	100	–	82.5	26.9	–	98.7	59.3	104	76.4	93.4	96.8	84.8	64.5	99	107	–
CN1CCN(c2ccc3nc(-c4c(N)c5c(F)cccc5[nH]c4=O)[nH]c3c2)CC1 [Dovitinib] (10000 nM)	101	118	101	–	103	99.3	97.9	108	86.8	99.1	99.9	121	108	126	92.4	111	104	–
C[C@@H]1C=C2C(=O)O[C@@H]3CC[C@H](C1)[C@]23O [Galiellalactone] (5000 nM)	58.8	101	106	107	103	82.2	115	96.5	106	101	100	117	98.5	–	104	105	105	112
O=C(c1ccc(OCCN2CCCCC2)cc1)c1c(-c2ccc(O)cc2)sc2cc(O)ccc12 [Raloxifene] (10000 nM)	–	108	99.6	62.7	99.2	82.2	82.8	104	63.3	102	95.4	101	50.4	82.7	103	118	58.4	–
O=c1[nH]cc(F)c(=O)[nH]1 [Fluorouracil] (10000 nM)	105	120	99.2	105	100	75.7	104	75.7	75	103	105	95.8	–	-57.8	92.9	103	95.2	118
O=C(c1ccc(OCCN2CCCCC2)cc1)c1c(-c2ccc(O)cc2)sc2cc(O)ccc12 [Raloxifene] (1000 nM)	104	121	104	103	103	104	119	107	98.6	–	97	106	105	120	92	119	102	105
O=c1[nH]c(=O)n([C@H]2C[C@H](O)[C@@H](CO)O2)cc1F [Floxuridine] (10000 nM)	93.8	53.1	103	108	103	113	114	99.9	26.5	–	104	113	66.2	119	106	103	106	93.2
COc1ccc(C2=N[C@@H](c3ccc(Cl)cc3)[C@@H](c3ccc(Cl)cc3)N2C(=O)N2CCNC(=O)C2)c(OC(C)C)c1 [Nutlin-3] (1000 nM)	102	–	100	104	109	84	115	92.7	108	100	100	116	112	108	102	94.2	99.6	61.6
COC1=C2C[C@@H](C)C[C@H](OC)[C@H](O)[C@@H](C)/C=C(\C)[C@H](OC(N)=O)[C@@H](OC)/C=C\C=C(/C)C(=O)NC(=CC1=O)C2=O [Geldanamycin] (1000 nM)	102	109	99.2	107	104	96.8	105	92.2	91	90.7	95	112	102	–	–	102	92.2	91.1
COc1ccc(C2=N[C@@H](c3ccc(Cl)cc3)[C@@H](c3ccc(Cl)cc3)N2C(=O)N2CCNC(=O)C2)c(OC(C)C)c1 [Nutlin-3] (10000 nM)	98.2	41.2	91	108	92.3	101	–	95	80.3	96.4	97.6	105	103	107	43.8	105	101	115
O=c1[nH]c(=O)n([C@H]2C[C@H](O)[C@@H](CO)O2)cc1F [Floxuridine] (1000 nM)	98.4	71	106	86	110	116	126	108	89.6	102	102	111	98	125	–	122	104	98.3
Cn1cnc2c(F)c(Nc3ccc(Br)cc3F)c(C(=O)NOCCO)cc21 [MEK-162] (1000 nM)	93.1	89.1	68.7	39.1	95.4	106	54.6	79.9	79.3	–	101	97.4	67.1	120	–	94.5	94.4	121
COc1cccc2c1C(=O)c1c(O)c3c(c(O)c1C2=O)C[C@@](O)(C(C)=O)C[C@@H]3O[C@H]1C[C@H](N)[C@H](O)[C@H](C)O1 [Daunorubicin] (100 nM)	105	73.5	100	104	110	106	–	98.2	102	99.6	99.5	124	–	96.9	-17.1	75.9	102	90.7
CS(=O)(=O)OCCCCOS(C)(=O)=O [Busulfan] (100000 nM)	101	106	97.4	99.8	97.6	95.5	105	95.6	77.6	84.1	100	110	–	–	81.5	94.9	108	123
CCS(=O)(=O)c1cccc(-c2cc(C(=O)NC3CCN(C)CC3)c(C)c3[nH]c4ncc(C)cc4c23)c1 [TAK-901] (100 nM)	102	53.8	100	92.3	107	107	91.5	96.8	97.9	94	101	116	–	-31.9	42	118	99.7	76.4
COC1=CC(c2cc3ccccc3[nH]2)=N/C1=C\c1[nH]c(C)cc1C [Obatoclax] (1000 nM)	90.5	100	98.1	64.3	105	70.1	-5.92	91.5	101	102	97.3	113	–	107	105	105	100	107
CC(C)(C)c1cc(NC(=O)Nc2ccc(-c3cn4c(n3)sc3cc(OCCN5CCOCC5)ccc34)cc2)no1 [Quizartinib] (100 nM)	99.7	117	101	116	101	84.8	–	66.7	107	102	100	132	103	139	106	98.3	106	113
CCCC(CCC)C(=O)O [Valproic acid] (10000 nM)	106	95.7	104	–	107	107	76	117	111	101	85	117	–	86.2	102	94.8	93.2	100
Cn1c(=O)c(F)c(Nc2ccc(I)cc2F)c2c(=O)n(C[C@@H](O)CO)cnc21 [TAK-733] (100 nM)	97	80.9	74	71.3	112	79.7	108	104	89	74.9	103	89.6	97.3	127	105	124	104	–
